Results reported in article PMC11790914, “Chemogenomics for steroid hormone receptors (NR3)” (Communications Chemistry, 2025).

How the values were obtained:
NR1B1 (RARα) = target: T1, NR1B1 (RARα) (Homo sapiens, UniProt P10276); test: Gal4 hybrid reporter gene assay RARα; format: cell-based; design: Activity on NR targets outside NR3 family [mean log10(fold reporter gene activity)] NR1B1 (RARα): concentration or dose not given beside the values
T1 construct: expressed in transfected cells; host or cells: HEK293T
T1 sequence (P10276 183-417 limits assumed): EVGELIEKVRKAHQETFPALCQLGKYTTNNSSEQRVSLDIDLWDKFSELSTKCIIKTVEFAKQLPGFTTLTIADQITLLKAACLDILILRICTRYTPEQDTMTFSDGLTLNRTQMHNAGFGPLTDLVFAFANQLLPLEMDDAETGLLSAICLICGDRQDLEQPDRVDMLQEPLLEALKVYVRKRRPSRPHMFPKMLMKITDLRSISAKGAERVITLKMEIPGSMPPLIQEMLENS
Experimental: (§1) Reference ligands are listed in the methods section.
Five hours after transfection, the cells were incubated with the NR3 CG compound candidates at the recommended concentrations by changing the medium to Opti-MEM supplemented with penicillin (100 µ/mL) and streptomycin (100 µg/mL) additionally containing 0.1% DMSO and the respective test compound or 0.1% DMSO alone as untreated control. Firefly (reporter) and renilla (control) luminescence were measured after 14–16 h incubation using the Dual-Glo® Luciferase Assay System (Promega, Fitchburg, Wisconsin, USA; #E2980) according to manufacturer’s protocol on a Tecan Spark® 10M multimode microplate reader (Tecan Group AG, Männedorf, Switzerland). To obtain relative light units (RLU) firefly luminescence was divided by renilla luminescence and multiplied by 1000. Fold activation was obtained by dividing the mean RLU of a test sample by the mean RLU of the DMSO (0.1%) control. Experiments were performed in singlets in at least three biologically independent repeats.
Supplementary Figure 1. […] Compounds are labeled according
Supplementary Figure 2. […] Compounds are
representing the NR1, NR2, NR4 and NR5 families.
scanning fluorimetry (DSF).
a concentration of 20 µM.

NR3A2 (ERβ) = settings: (lit.); ref Supplementary Table 1; read-out: Potency [nM] IC50, NR3A2 (ERβ); cited from earlier work
NR1I2 (PXR) = target: T2, NR1I2 (PXR) (Homo sapiens, UniProt O75469); test: Gal4 hybrid reporter gene assay PXR; format: cell-based; settings: 1 µM, n=3
T2 construct: expressed in transfected cells; host or cells: HEK293T
T2 sequence (O75469 146-433 limits assumed): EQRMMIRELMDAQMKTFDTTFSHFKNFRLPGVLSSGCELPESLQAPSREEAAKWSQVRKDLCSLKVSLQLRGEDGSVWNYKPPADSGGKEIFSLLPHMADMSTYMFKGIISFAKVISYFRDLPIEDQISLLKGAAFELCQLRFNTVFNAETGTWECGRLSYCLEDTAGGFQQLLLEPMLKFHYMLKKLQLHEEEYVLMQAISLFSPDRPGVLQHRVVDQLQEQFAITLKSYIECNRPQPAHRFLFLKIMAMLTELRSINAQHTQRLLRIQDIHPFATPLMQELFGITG
Experimental: as §1
(§2) HEK293T cells (ATCC, Manassas, Virgina, USA; #CRL-3216) were cultured to a maximal confluence of 70–80% in DMEM, high glucose, supplemented with 10% FCS, sodium pyruvate (1 mM), penicillin (100 U/mL), and streptomycin (100 μg/mL) at 37 °C and 5% CO2 (v/v), and seeded in clear 96-well plates (4 × 10^4 cells per well). After 20–24 h, medium was changed to Opti-MEM without supplements and the cells were transiently transfected using Lipofectamine™ LTX/Plus™ Reagents (Invitrogen, Carlsbad, California, USA; #15338100) according to the manufacturer’s protocol with pFR-Luc (reporter gene; Stratagene, Agilent Technologies, Santa Clara, California, USA; #219050), pRL-SV40 (control gene for normalization of transfection efficiency and cell growth; Promega, Fitchburg, Wisconsin, USA; #E2231) and one pFA-CMV-hNR-LBD clone coding for the hinge region and ligand binding domain (LBD) of the human NR of interest. […] Firefly (reporter) and renilla (control) luminescence were measured after 14–16 h incubation using the Dual-Glo® Luciferase Assay System (Promega, Fitchburg, Wisconsin, USA; #E2980) according to manufacturer’s protocol on a Tecan Spark® 10M multimode microplate reader (Tecan Group AG, Männedorf, Switzerland). To obtain relative light units (RLU) firefly luminescence was divided by renilla luminescence and multiplied by 1000. […]

NR3C2 (MR) = settings: rem. act.; cited from earlier work
NR5A2 (LRH1) = test: Gal4 hybrid reporter gene assay LRH1; format: cell-based, human; settings: 1 µM; n=3; vs. DMSO ctrl
Experimental: as §1, §2

NR2A2 (HNF4α) = target: T3, NR2A2 (HNF4α) (Homo sapiens, UniProt P41235); test: Gal4 hybrid reporter gene assay HNF4α; format: cell-based; settings: n=3
T3 construct: expressed in transfected cells; host or cells: HEK293T
T3 sequence (P41235 147-377 limits assumed): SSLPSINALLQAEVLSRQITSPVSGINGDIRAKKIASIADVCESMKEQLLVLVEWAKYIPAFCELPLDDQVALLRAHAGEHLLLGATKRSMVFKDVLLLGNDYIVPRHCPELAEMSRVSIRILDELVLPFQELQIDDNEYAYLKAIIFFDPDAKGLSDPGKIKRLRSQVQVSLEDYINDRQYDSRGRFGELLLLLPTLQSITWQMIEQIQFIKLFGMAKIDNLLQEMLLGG
Experimental: as §1, §2

NR4A1 (Nur77) = target: T4, NR4A1 (Nur77) (Homo sapiens, UniProt P22736); test: Gal4 hybrid reporter gene assay Nur77; format: cell-based; settings: 10 µM, n=3
T4 construct: expressed in transfected cells; host or cells: HEK293T
T4 sequence (P22736 360-595 limits assumed): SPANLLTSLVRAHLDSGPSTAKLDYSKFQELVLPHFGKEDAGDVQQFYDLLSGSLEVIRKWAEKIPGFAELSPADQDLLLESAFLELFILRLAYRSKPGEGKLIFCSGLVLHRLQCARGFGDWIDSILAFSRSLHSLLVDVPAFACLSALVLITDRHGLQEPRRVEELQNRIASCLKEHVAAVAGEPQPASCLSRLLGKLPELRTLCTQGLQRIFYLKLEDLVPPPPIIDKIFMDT
Experimental: as §1, §2

NR1F3 (RORγ) = target: T5, NR1F3 (RORγ) (Homo sapiens, UniProt P51449); test: Gal4 hybrid reporter gene assay RORγ; format: cell-based; settings: 3 µM, n=3
T5 construct: expressed in transfected cells; host or cells: HEK293T
T5 sequence (P51449 269-508 limits assumed): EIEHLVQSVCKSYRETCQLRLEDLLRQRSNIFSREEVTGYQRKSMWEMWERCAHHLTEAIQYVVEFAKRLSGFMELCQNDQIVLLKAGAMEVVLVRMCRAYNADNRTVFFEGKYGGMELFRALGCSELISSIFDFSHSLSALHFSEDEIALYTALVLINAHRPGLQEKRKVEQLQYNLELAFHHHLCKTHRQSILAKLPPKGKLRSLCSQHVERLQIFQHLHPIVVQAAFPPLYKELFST
Experimental: as §1, §2

NR3B3 (ERRγ) = settings: (lit.); ref Supplementary Table 1; read-out: Potency [nM] EC50, NR3B3 (ERRγ); cited from earlier work

## CC/C(=C(/c1ccc(/C=C/C(=O)O)cc1)c1ccc2[nH]ncc2c1)c1ccc(F)cc1Cl [ARN810]
NR1B1 (RARα); 1 µM, n=3
  Activity on NR1B1 (RARα): -0.97 mean log10(fold reporter gene activity)
NR3A2 (ERβ)
  IC50: 9 nM
NR1I2 (PXR)
  Activity on NR1I2 (PXR): -0.68 mean log10(fold reporter gene activity)

## C[C@@H]1Cc2c([nH]c3ccccc23)[C@@H](c2c(F)cc(/C=C/C(=O)O)cc2F)N1CC(C)(C)F [AZD9496]
NR1B1 (RARα)
  Activity on NR targets outside NR3 family [mean log10(fold reporter gene activity)] NR1B1 (RARα): -0.43 log10(fold reporter gene activity)

## CC#C[C@]1(O)CC[C@H]2[C@@H]3CCC4=CC(=O)CCC4=C3[C@@H](c3ccc(N(C)C)cc3)C[C@@]21C [Mifepristone]
NR3C2 (MR)
  rel. activity from literature, NR3C2 (MR): % rem. act.: 4%

## CC/C(=C(\c1ccc(O)cc1)c1ccc(OCCN(C)C)cc1)c1ccccc1 [(Z)-4-Hydroxytamoxifen]
NR3A2 (ERβ)
  IC50: 1 ± 1 nM

## COc1cc(/C=C(\C#N)C(=O)Nc2nnc(C(F)(F)F)s2)ccc1OCc1ccc(C(F)(F)F)cc1C(F)(F)F [XCT790]
NR5A2 (LRH1)
  Activity on NR targets outside NR3 family [mean log10(fold reporter gene activity)] NR5A2 (LRH1): 0.20 log10(fold reporter gene activity)

## COc1ccc(-c2coc3cc(O)cc(O)c3c2=O)cc1 [Biochanin A]
NR2A2 (HNF4α); 10 µM
  Activity on NR2A2 (HNF4α): 0.38 mean log10(fold reporter gene activity)
NR4A1 (Nur77)
  Activity on NR4A1 (Nurr77): 0.34 mean log10(fold reporter gene activity)

## CCCC1O[C@@H]2C[C@H]3[C@@H]4CCC5=CC(=O)C=C[C@]5(C)[C@H]4[C@@H](O)C[C@]3(C)[C@]2(C(=O)CO)O1 (stereo partly shown) [Budesonide]
NR1F3 (RORγ)
  Activity on NR1F3 (RORγ): -0.30 mean log10(fold reporter gene activity)

## CCN(CC)c1ccc(/C=N/NC(=O)c2ccc(O)cc2)cc1 [DY131]
NR3B3 (ERRγ)
  EC50: 130 nM
NR2A2 (HNF4α); 3 µM, vs. DMSO ctrl
  Activity on NR targets outside NR3 family [mean log10(fold reporter gene activity)] NR2A2 (HNF4α): 0.29 log10(fold reporter gene activity)
NR1F3 (RORγ); vs. DMSO ctrl
  Activity on NR targets outside NR3 family [mean log10(fold reporter gene activity)] NR1F3 (RORγ): 0.21 log10(fold reporter gene activity)
